SMILES strings stand for the structures.

The test system of the assay is Fasciola hepatica. Kind of assay: In vivo for fasciolicidal activity against Fasciola hepatica infections in rats following s.c. administration.
`Cc1cc(Cc2ccccc2)cc(C(=O)Nc2ccc(Cl)cc2Cl)c1O` had a Dose of 100 mg/kg. With `Cc1cc(C(=O)c2ccc(Cl)cc2)cc(C(=O)Nc2cc(Cl)cc(Cl)c2)c1O`, the Dose turned out to be 100 mg/kg. The figure for `Cc1cc(C(=O)c2ccc([N+](=O)[O-])cc2)cc(C(=O)Nc2ccc(Cl)cc2Cl)c1O` is 12.5 mg/kg; for `Cc1cc(Oc2ccccc2)cc(C(=O)Nc2ccc(Cl)cc2Cl)c1O` it is 100 mg/kg. Then `Cc1cc(C(=O)c2ccc(Cl)c(Cl)c2)cc(C(=O)Nc2ccc([N+](=O)[O-])cc2Cl)c1O`, with 3.1 mg/kg; and `Cc1cc(C(=O)c2ccc(Br)cc2)cc(C(=O)Nc2ccc(Cl)cc2Cl)c1O`, with 100 mg/kg; and `Cc1cc(C(=O)c2ccc(Cl)cc2)cc(C(=O)Nc2ccc(C#N)cc2)c1O`, with 100 mg/kg. Then `Cc1cc(C(=O)c2ccc(Cl)cc2)cc(C(=O)Nc2ccc([N+](=O)[O-])cc2C(F)(F)F)c1O`, with 6.3 mg/kg; and `Cc1c(C(=O)c2ccc(Cl)cc2)cc(C(C)(C)C)c(O)c1C(=O)Nc1ccc([N+](=O)[O-])cc1Cl`, with 1.6 mg/kg. Take `Cc1cc(C(=O)c2ccc(I)cc2)cc(C(=O)Nc2ccc([N+](=O)[O-])cc2Cl)c1O`: the Dose turned out to be 12.5 mg/kg. Then `Cc1cc(C(=O)c2ccc(Cl)cc2)cc(C(=O)Nc2ccc([N+](=O)[O-])cc2Cl)c1O`, with 6.3 mg/kg; and `O=C(Nc1ccc(Oc2ccc(Cl)cc2)c(Cl)c1)c1cc(I)cc(I)c1O` [RAFOXANIDE], with 12.5 mg/kg. Then `Cc1cc(C(=O)c2ccc(Cl)cc2Cl)cc(C(=O)Nc2ccc([N+](=O)[O-])cc2Cl)c1O`, with 6.3 mg/kg; and `O=C(c1ccc(Cl)cc1)c1ccc(O)c(C(=O)Nc2ccc([N+](=O)[O-])cc2Cl)c1`, with 25 mg/kg.

`Cc1cc(C(=O)c2ccc(C#N)cc2)cc(C(=O)Nc2ccc([N+](=O)[O-])cc2Cl)c1O` showed a Dose of 6.3 mg/kg. The compound `Cc1cc(C(=O)c2ccc([N+](=O)[O-])cc2)cc(C(=O)Nc2ccc([N+](=O)[O-])cc2Cl)c1O` came in with a Dose of 6.3 mg/kg. The figure for `Cc1cc(C(=O)c2ccc(Cl)cc2)cc(C(=O)Nc2ccc(Cl)c(Cl)c2)c1O` is 100 mg/kg; for `Cc1cc(C(=O)c2ccc(Cl)cc2)cc(C(=O)Nc2ccc(Br)cc2C(F)(F)F)c1O` it is 6.3 mg/kg; for `Cc1cc(C(=O)c2ccc(Br)cc2)cc(C(=O)Nc2ccc([N+](=O)[O-])cc2Cl)c1O` it is 3.1 mg/kg. The figure for `Cc1cc(C(=O)c2ccc(Cl)cc2)cc(C(=O)Nc2ccc([N+](=O)[O-])cc2Br)c1O` is 3.1 mg/kg. Then `Cc1cc(C(=O)c2ccc(Cl)cc2)c(C)c(C(=O)Nc2ccc([N+](=O)[O-])cc2Cl)c1O`, with 3.1 mg/kg.

The values above are taken from ChEMBL document CHEMBL1123061, “Potentiation of fasciolicidal agents by benzoyl side chains. Synthesis of benzoylsalicylanilides” (1985).
